Test results as given in publication PMC10385824, “Antiproliferative and Tubulin-Destabilising Effects of 3-(Prop-1-en-2-yl)azetidin-2-Ones and Related Compounds in MCF-7 and MDA-MB-231 Breast Cancer Cells” (Pharmaceuticals, 2023).
Where two headings read alike, the source gives them in different places.

Experiments:
[1] = tested on: HCT-15; experiment: NCI-60 SRB screen, colon cancer; assay type: cell-based, human; conditions: Homo sapiens
[2] = tested on: SK-MEL-5; experiment: NCI-60 SRB screen, melanoma; assay type: cell-based, human; conditions: Homo sapiens
[3] = tested on: MDA-MB-435; experiment: NCI-60 SRB screen, melanoma; assay type: cell-based, human; conditions: Homo sapiens
[4] = tested on: OVCAR-5; experiment: NCI-60 SRB screen, ovarian cancer; assay type: cell-based, human; conditions: Homo sapiens
[5] = tested on: COLO 205; experiment: NCI-60 SRB screen, colon cancer; assay type: cell-based, human; conditions: Homo sapiens
[6] = tested on: T-47D; experiment: NCI-60 SRB screen, breast cancer; assay type: cell-based, human; conditions: Homo sapiens, T47D, 48 h
[7] = tested on: CCRF-CEM; experiment: NCI-60 SRB screen, leukemia; assay type: cell-based; conditions: Homo sapiens, 48 h
[8] = tested on: LOX IMVI; experiment: NCI-60 SRB screen, melanoma; assay type: cell-based, human; conditions: Homo sapiens, 48 h
[9] = tested on: 786-0; experiment: NCI-60 SRB screen, renal cancer; assay type: cell-based, human; conditions: Homo sapiens
[10] = tested on: MDA-MB-231 human breast cancer cells; experiment: Alamar Blue cell viability (antiproliferative) assay; assay type: cell-based; conditions: read-out: IC50
[11] = tested on: MOLT-4; experiment: NCI-60 SRB screen, leukemia; assay type: cell-based, human; conditions: Homo sapiens
[12] = tested on: IGROV1; experiment: NCI-60 SRB screen, ovarian cancer; assay type: cell-based, human; conditions: Homo sapiens
[13] = tested on: U251; experiment: NCI-60 SRB screen, CNS cancer; assay type: cell-based, human; conditions: Homo sapiens
[14] = tested on: MDA-MB-231/ATCC; experiment: NCI-60 SRB screen, breast cancer; assay type: cell-based, human; conditions: Homo sapiens
[15] = tested on: HCT-2998; experiment: NCI-60 SRB screen, colon cancer; assay type: cell-based, human; conditions: Homo sapiens, 48 h
[16] = tested on: UACC-62; experiment: NCI-60 SRB screen, melanoma; assay type: cell-based, human; conditions: Homo sapiens
[17] = tested on: PC-3; experiment: NCI-60 SRB screen, prostate cancer; assay type: cell-based, human; conditions: Homo sapiens
[18] = tested on: A549/ATCC; experiment: NCI-60 SRB screen, non-small cell lung cancer; assay type: cell-based, human; conditions: Homo sapiens
[19] = tested on: NCI-H226; experiment: NCI-60 SRB screen, non-small cell lung cancer; assay type: cell-based; conditions: Homo sapiens
[20] = tested on: NCI-H23; experiment: NCI-60 SRB screen, non-small cell lung cancer; assay type: cell-based, human; conditions: Homo sapiens
[21] = tested on: SNB-19; experiment: NCI-60 SRB screen, CNS cancer; assay type: cell-based, human; conditions: Homo sapiens
[22] = tested on: HOP-92; experiment: NCI-60 SRB screen, non-small cell lung cancer; assay type: cell-based, human; conditions: Homo sapiens
[23] = tested on: TK-10; experiment: NCI-60 SRB screen, renal cancer; assay type: cell-based, human; conditions: Homo sapiens
[24] = tested on: CAKI-1; experiment: NCI-60 SRB screen, renal cancer; assay type: cell-based, human; conditions: Homo sapiens
[25] = tested on: A498; experiment: NCI-60 SRB screen, renal cancer; assay type: cell-based, human; conditions: Homo sapiens
[26] = tested on: OVCAR-3; experiment: NCI-60 SRB screen, ovarian cancer; assay type: cell-based, human; conditions: Homo sapiens
[27] = tested on: NCI/ADR-RES; experiment: NCI-60 SRB screen, ovarian cancer; assay type: cell-based, human; conditions: Homo sapiens, 48 h
[28] = tested on: NCI-H332M; experiment: NCI-60 SRB screen, non-small cell lung cancer; assay type: cell-based; conditions: Homo sapiens, 48 h
[29] = tested on: SW-620; experiment: NCI-60 SRB screen, colon cancer; assay type: cell-based, human; conditions: Homo sapiens
[30] = tested on: KM12; experiment: NCI-60 SRB screen, colon cancer; assay type: cell-based, human; conditions: Homo sapiens
[31] = tested on: MCF-7; experiment: cells; conditions: Homo sapiens, MCF7, 48 h
[32] = tested on: MALME-3M; experiment: NCI-60 SRB screen, melanoma; assay type: cell-based, human; conditions: Homo sapiens; MALME-3M; five dose 0.01–100 µM, 48 h; read-out: GI50
[33] = five dose 0.01–100 µM, read-out: GI50

For C=C/C=C/C1C(=O)N(c2cc(OC)c(OC)c(OC)c2)C1c1ccc(OC)c(N)c1 (stereo not drawn) [11r, (E)-4-(3-Amino-4-methoxyphenyl)-3-(buta-1,3-dien-1-yl)-1-(3,4,5-trimethoxyphenyl)azetidin-2-one], the GI50 ([1]; HCT-15, 48 h) was 37 nM, the GI50 ([2]; SK-MEL-5, 48 h) was 22.2 nM and the GI50 ([3]; MDA-MB-435, 48 h) was 22.1 nM. For the same compound, the GI50 ([4]; OVCAR-5, 48 h) was 93.7 nM, the GI50 ([5]; COLO 205, 48 h) was 23.1 nM and the GI50 [6] was over 100000 nM. It also gave a GI50 [7] of 36.5 nM, a GI50 [8] of 34.4 nM and a GI50 ([9]; 786-0, 48 h) of 32.7 nM. The IC50 [10] was 33 nM, the GI50 ([11]; MOLT-4, 48 h) was 39.6 nM and the GI50 ([12]; IGROV-1, 48 h) was 46.6 nM. The GI50 ([13]; U-251, 48 h) was 35.7 nM, the GI50 ([14]; MDA-MB-231, 48 h) was 31.5 nM and the IC50 ([14]; MDA-MB-231, 48 h, read-out: Antiproliferative Activity IC50) was 33.7 nM. It also gave a GI50 [15] of 27 nM, a GI50 ([16]; UACC-62, 48 h) of 39.6 nM and a GI50 ([17]; PC-3, 48 h) of 39.2 nM. It also gave a GI50 ([18]; A549, 48 h) of 38 nM, a GI50 ([19]; NCI-H226, 48 h) of 56.4 nM and a GI50 ([20]; NCI-H23, 48 h) of 30 nM. The GI50 ([21]; SNB-19, 48 h) was 64.9 nM, the GI50 ([22]; HOP-92, 48 h) was 25.3 nM and the GI50 ([23]; TK-10, 48 h) was 74.8 nM. The GI50 ([24]; CAKI-1, 48 h) was 63.1 nM, the GI50 ([25]; A498, 48 h) was 22.3 nM and the GI50 ([26]; OVCAR-3, 48 h) was 26.2 nM. It also gave a GI50 [27] of 19.6 nM, a GI50 [28] of 57.9 nM and a GI50 ([29]; SW-620, 48 h) of 42.9 nM. For the same compound, the GI50 ([30]; KM12, 48 h) was 33.1 nM and the GI50 [31] was 33.6 nM.

COc1ccc(C2C(C(C)C)C(=O)N2c2cc(OC)c(OC)c(OC)c2)cc1OP(=O)(O)O (stereo not drawn) [15b, 5-(3-Isopropyl-1-(3,4,5-trimethoxyphenyl)-4-oxoazetidin-2-yl)-2-methoxyphenyl dihydrogen phosphate] gave a GI50 ([1]; HCT-15, five dose 0.01–100 µM, 48 h, read-out: GI50) of 298 nM, a GI50 ([2]; SK-MEL-5, five dose 0.01–100 µM, 48 h, read-out: GI50) of 164 nM and a GI50 ([3]; MDA-MB-435, five dose 0.01–100 µM, 48 h, read-out: GI50) of 73.8 nM. It also gave a GI50 ([4]; OVCAR-5, five dose 0.01–100 µM, 48 h, read-out: GI50) of 2340 nM, a GI50 ([5]; COLO 205, five dose 0.01–100 µM, 48 h, read-out: GI50) of 1230 nM and a GI50 ([6]; T-47D, five dose 0.01–100 µM, read-out: GI50) of over 100000 nM. It also gave a GI50 [7, 33] of 356 nM, a GI50 [8, 33] of 328 nM and a GI50 ([9]; 786-0, five dose 0.01–100 µM, 48 h, read-out: GI50) of 439 nM. For the same compound, the GI50 ([11]; MOLT-4, five dose 0.01–100 µM, 48 h, read-out: GI50) was 493 nM, the GI50 [32] was over 100000 nM and the GI50 ([12]; IGROV-1, IGROV1, five dose 0.01–100 µM, 48 h, read-out: GI50) was 434 nM. For the same compound, the GI50 ([13]; U-251, U251, five dose 0.01–100 µM, 48 h, read-out: GI50) was 276 nM, the GI50 ([14]; MDA-MB-231/ATCC, five dose 0.01–100 µM, 48 h, read-out: GI50) was 215 nM and the GI50 ([15]; HCT-2998, five dose 0.01–100 µM, read-out: GI50) was 452 nM. For the same compound, the GI50 ([16]; UACC-62, five dose 0.01–100 µM, 48 h, read-out: GI50) was 131 nM, the GI50 ([17]; PC-3, five dose 0.01–100 µM, 48 h, read-out: GI50) was 278 nM and the GI50 ([18]; A549/ATCC, five dose 0.01–100 µM, 48 h, read-out: GI50) was 353 nM. It also gave a GI50 ([19]; NCI-H226, five dose 0.01–100 µM, 48 h, read-out: GI50) of over 100000 nM, a GI50 ([20]; NCI-H23, five dose 0.01–100 µM, 48 h, read-out: GI50) of 368 nM and a GI50 ([21]; SNB-19, five dose 0.01–100 µM, 48 h, read-out: GI50) of 477 nM. The GI50 ([22]; HOP-92, five dose 0.01–100 µM, 48 h, read-out: GI50) was 11200 nM, the GI50 ([23]; TK-10, five dose 0.01–100 µM, 48 h, read-out: GI50) was 695 nM and the GI50 ([24]; CAKI-1, five dose 0.01–100 µM, 48 h, read-out: GI50) was 320 nM. For the same compound, the GI50 ([25]; A498, five dose 0.01–100 µM, 48 h, read-out: GI50) was 104 nM, the GI50 ([26]; OVCAR-3, five dose 0.01–100 µM, 48 h, read-out: GI50) was 270 nM and the GI50 [27, 33] was 212 nM. It also gave a GI50 ([28]; […], five dose 0.01–100 µM, read-out: GI50) of 592 nM, a GI50 ([29]; SW-620, five dose 0.01–100 µM, 48 h, read-out: GI50) of 373 nM and a GI50 ([30]; KM12, five dose 0.01–100 µM, 48 h, read-out: GI50) of 180 nM. It also gave a GI50 [31] of 244 nM.
